Like-named read-outs stand apart in the source and are kept apart here.
Assays:
[1] = 30 ppm cyclamate in acidic water; one panelist
Method: (§1) Ingredients were added to water while stirring until solids were visibly dissolved and the sample was poured into a glass bottle and stored at 4° C.
(§2) Taste tests were carried out with one panelist. Bottles were removed from the refrigerator and about 25 ml of beverage was poured into 4 oz-plastic cups. The panelist was given mineral water to rinse their mouth before tasting and between tasting different samples. Unsalted crackers were also given to eat followed by rinsing the mouth with mineral water before tasting the next sample.
(§3) Initially, the panelist was asked to determine the sweetness of the 30 ppm of cyclamate (Table 1).

[2] = 30 ppm cyclamate in acidic water; one panelist; remark: listed apart in the source
Method: as §1, §2, §3
The panelist was asked to compare the taste profile of (i) a sample of 150 ppm rebaudioside M in acidic water and (ii) a sample of 150 ppm rebaudioside M and 30 ppm cyclamate (below the sweetness recognition threshold concentration) in acidic water. The panelist was asked to compare the sweetness and taste profiles of the two samples.

[3] = Taste evaluation, sweetness compared to control sucrose acidic water solutions (Example 1); format: in vivo, human; conditions: samples with 320 ppm rebaudioside M in acidic water (citric acid); one panelist; controls 8%, 9%, 10% sucrose
Excerpt: The panelist was instructed to sip, evaluate the sweetness, and then spit the sample in cups provided for that purpose.

Compound | sweetness of cyclamate alone [1] | sweetness of cyclamate alone [2] | sweetness compared to control sucrose acidic water solutions [3]
O=S(=O)([O-])NC1CCCCC1.[Na+] [cyclamate, sodium cyclamate] | not sweet | not sweet | –
C=C1C[C@@]23CC[C@H]4[C@@](C)(CCC[C@@]4(C)C(=O)O[C@@H]4O[C@H](CO)[C@@H](O)[C@H](O[C@@H]5O[C@H](CO)[C@@H](O)[C@H](O)[C@H]5O)[C@H]4O[C@@H]4O[C@H](CO)[C@@H](O)[C@H](O)[C@H]4O)[C@@H]2CC[C@]1(O[C@@H]1O[C@H](CO)[C@@H](O)[C@H](O[C@@H]2O[C@H](CO)[C@@H](O)[C@H](O)[C@H]2O)[C@H]1O[C@@H]1O[C@H](CO)[C@@H](O)[C@H](O)[C@H]1O)C3 [rebaudioside M] | – | – | < 8%
